The values below come from ChEMBL document CHEMBL3286211, “Pyrimidinylpiperdinyloxypyridone Analogues as GPR119 Modulators” (ACS Med Chem Lett, 2014).

In data set [1] the test system is Mus musculus. Put plainly: Antidiabetic activity in C57BL/6J mouse assessed as reduction in plasma glucose level at 0.03 mg/kg, po administered for 60 mins followed by glucose challenge measured for 30 to 120 mins by OGTT relative to vehicle-treated control. On the set-up: scale not given: the % may be the effect or the level left. In kind it is functional.
Data set [2] in a line: Agonist activity at human-mouse chimeric GPR119 expressed in tetracycline-induced Flp-In-T-Rex-HEK293 cells assessed as accumulation of cAMP after 50 mins by HTRF assay. Type of data set: cell-based. The following applies: HEK293, 50 min.
Data set [3] in a line: Half life in human liver microsomes at 50 uM preincubated for 5 mins followed by NADPH addition by LC/MS-MS analysis. In kind it is ADME. (In general: Liver microsomes are a subcellular fraction often used to study metabolism.)
The subject of data set [4] is Mus musculus. Put plainly: Antidiabetic activity in C57BL/6J mouse assessed as reduction in plasma glucose level at 0.1 mg/kg, po administered for 60 mins followed by glucose challenge measured for 30 to 120 mins by OGTT relative to vehicle-treated control. In kind it is functional. On the set-up: scale not given: the % may be the effect or the level left.

SMILES strings stand for the structures.

Broadly, the EC50 is the concentration that produces a half-maximal response. The term half-life denotes the time in which the quantity being followed falls by half. On to `Cc1nc(-n2cc(Cl)c(OC3CCN(c4ncc(Cl)cn4)CC3)cc2=O)ccc1N1CCC(O)C1=O` (configuration not stated), for which the Activity in data set [1] is 36%. Further, the concentration giving a half-maximal response (EC50) in data set [2] turned out to be 2 nM. In addition, in data set [3], the half-life at 50 µM was determined as 94 min.

With `CCCc1cnc(N2CCC(Oc3cc(=O)n(-c4ccc(N5CCC(O)C5=O)c(C)n4)cc3Cl)CC2)nc1` (configuration not stated), the Activity in data set [1] amounted to 19%. In data set [2], the half-maximal effective concentration (EC50) amounted to 4 nM. Further, the half-life at 50 µM in data set [3] came out at 120 min.

Turning to `Cc1nc(-n2cc(Cl)c(OC3CCN(c4ncc(Cl)cn4)CC3)cc2=O)ccc1N1CC[C@H](O)C1=O`, the Activity in data set [1] came out at 26%. Besides, the EC50 in data set [2] was 4 nM. In data set [3], the half-life at 50 µM was determined as 78 min.

Regarding `Cc1nc(-n2cc(Cl)c(OC3CCN(c4ncc(Cl)cn4)CC3)cc2=O)ccc1N1CC[C@@H](O)C1=O`, the Activity in data set [1] is reported as 39%. For the same compound, in data set [2], the EC50 was found to be 3 nM. The compound also gave a half-life at 50 µM in data set [3] of 97 min.

Take `CCCc1cnc(N2CCC(Oc3ccn(-c4ccc(N5CCC(O)C5=O)c(C)n4)c(=O)c3)CC2)nc1` (configuration not stated): the concentration giving a half-maximal response (EC50) in data set [2] worked out at 16 nM. In data set [3], this compound gave a half-life at 50 µM of 76 min. Also, the Activity in data set [4] came to 21%.

Regarding `Cc1nc(-n2ccc(OC3CCN(c4ncc(Cl)cn4)CC3)cc2=O)ccc1N1CCC(O)C1=O` (configuration not stated), in data set [2], the 50% effective concentration (EC50) came out at 10 nM. The same compound had a half-life at 50 µM in data set [3] of 101 min.
